Data on 4 molecules can be found in ChEMBL document CHEMBL1201862, “PubChem BioAssay data set” (2004).

Some test systems named below: RPMI-8226; PC-3; SR; EKVX; HT-29; MCF7; K562; ACHN; SK-OV-3; OVCAR-8; SK-MEL-28; CAKI-1; LOX IMVI; OVCAR-3; NCI-H522; SNB-75; SF-539; NCI-H460; HCT-15; M14.
Holding throughout (assay): growth of human tumour cells (NCI), 48 h

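Values below derive from 48-hour exposures of cells grown in 96-well plates, with endpoints linearly interpolated between the two concentrations bracketing the appropriate inhibition level. The concentration for 50% growth inhibition is given as GI50.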 The source made the active and inactive calls. Cut-off read from the data, not from the text of the source: active = GI50 up to about 1.1 µM and inactive = higher.

In the case of `O=C(CN1CCN(C(=O)OCc2ccccc2)CCN(CC(=O)N2CCCCC2)CCN(C(=O)OCc2ccccc2)CC1)N1CCCCC1`, the GI50 with RPMI-8226 is 13.4 µM (inactive); with PC-3 it was 12.6 µM (inactive); with SR it was 3.3 µM (inactive); with EKVX, 24.9 µM (inactive); in the assay with HT-29 it was 7.46 µM (inactive); with MCF7, 17.1 µM (inactive). The GI50 in the assay on K562 was 5.4 µM (inactive); in the assay with ACHN it was 18.1 µM (inactive); in the assay on SK-OV-3, 27.7 µM (inactive); in the assay with OVCAR-8, 8.61 µM (inactive); with SK-MEL-28, 14.7 µM (inactive); in the assay with CAKI-1, 5.04 µM (inactive). The GI50 with LOX IMVI is 14.5 µM (inactive); in the assay with OVCAR-3 it was 10.7 µM (inactive); with NCI-H522 it was 5.52 µM (inactive); in the assay on SNB-75, 4.22 µM (inactive); in the assay with SF-539, 14.6 µM (inactive); in the assay on NCI-H460, 12.4 µM (inactive). Also, the figures for the GI50 with HCT-15 and in the assay on M14 were 17.9 µM and 10.1 µM (inactive), respectively.

As for `C=C1C(=O)O[C@@H]2C(=O)[C@@H](C)[C@@H]3C=CC(=O)[C@@]3(C)[C@@H](OC(=O)/C(C)=C\C)[C@H]12` [MULTISTATIN], the GI50 is 0.327 µM (active) with RPMI-8226; 2.29 µM (inactive) in the assay with PC-3; 0.223 µM (active) in the assay with SR; 1.1 µM (active) with EKVX; 0.371 µM (active) with HT-29; 0.394 µM (active) in the assay on MCF7. In addition, the GI50 with K562 is 0.293 µM (active); with ACHN it was 0.212 µM (active); in the assay on SK-OV-3 it was 13.1 µM (inactive); in the assay with OVCAR-8, 1.73 µM (inactive); with SK-MEL-28, 0.278 µM (active); in the assay with CAKI-1 it was 0.264 µM (active). Also, the GI50 in the assay on LOX IMVI was 0.555 µM (active); in the assay with OVCAR-3 it was 0.653 µM (active); in the assay on NCI-H522 it was 0.0883 µM (active); in the assay with SNB-75, 5.53 µM (inactive); with SF-539, 1.84 µM (inactive); in the assay with NCI-H460, 2.21 µM (inactive). In addition, the GI50 in the assay with HCT-15 was 0.284 µM; in the assay on M14, 1.56 µM (inactive).

Consider `O=C(O)CN(CC(=O)O)Cc1cc2c(cc1O)Oc1cc(O)c(CN(CC(=O)O)CC(=O)O)cc1C21OC(=O)c2ccccc21` [OFTASCEINE], for which the GI50 in the assay with RPMI-8226, in the assay on PC-3, in the assay on SR, in the assay on EKVX, in the assay on HT-29 and in the assay on MCF7 was > 100 µM (inactive) in each case. The GI50 with K562, in the assay with ACHN, in the assay with SK-OV-3, in the assay with OVCAR-8, in the assay with SK-MEL-28 and with CAKI-1 was > 100 µM (inactive) each time. In addition, the GI50 was > 100 µM (inactive) in the assay with LOX IMVI; > 100 µM (inactive) with OVCAR-3; > 100 µM (inactive) in the assay with NCI-H522; > 100 µM (inactive) in the assay on SNB-75; > 100 µM (inactive) in the assay on SF-539; > 10 µM (inactive) in the assay with NCI-H460. For the same molecule, the figures for the GI50 in the assay with HCT-15 and in the assay with M14 were greater than 100 µM and > 100 µM (inactive), respectively.

Take `O=C(/C=C/c1ccc(Oc2cc(C(=O)/C=C/c3ccc(O)cc3)c(O)cc2O)cc1)c1ccc(O)cc1O` [RHUSCHALCONE II]: the GI50 was 2.86 µM (inactive) with RPMI-8226; 5.27 µM (inactive) with PC-3; 3.35 µM (inactive) in the assay with SR; 13.2 µM (inactive) with EKVX; 1.92 µM (inactive) with HT-29; 4.26 µM (inactive) in the assay with MCF7. Moreover, the GI50 in the assay on K562 is 3.47 µM (inactive); with ACHN, 9.29 µM (inactive); in the assay with SK-OV-3 it was 3.17 µM (inactive); in the assay on OVCAR-8, 2.64 µM (inactive); with SK-MEL-28, 2.52 µM (inactive); with CAKI-1 it was 4.14 µM (inactive). For the same molecule, the GI50 with LOX IMVI is 5.47 µM (inactive); in the assay on OVCAR-3, 3.42 µM (inactive); in the assay on NCI-H522, 4.82 µM (inactive); in the assay with SNB-75 it was 4.63 µM (inactive); in the assay on SF-539 it was 2.43 µM (inactive); in the assay with NCI-H460, 7.89 µM (inactive). The GI50 is 5.97 µM with HCT-15 and 10.3 µM (inactive) with M14.
